What was measured:
Assay in all cases: Caliper, Mobility shift assay off-chip
MAPK1 (human) = MAPK1 (human) (UniProt P28482)
BRSK2 (human) = BRSK2 (human) (UniProt Q8IWQ3)
NTRK1 (human) = NTRK1 (human) (UniProt P04629)
SRPK3 (human) = SRPK3 (human) (UniProt Q9UPE1)
SGK3 (human) = SGK3 (human) (UniProt Q96BR1)
CHUK (human) = CHUK (human) (UniProt O15111)
PIM3 (human) = PIM3 (human) (UniProt Q86V86)
MELK (human) = MELK (human) (UniProt Q14680)
WNK2 (human) = WNK2 (human) (UniProt Q9Y3S1)
STK4 (human) = STK4 (human) (UniProt Q13043)
Chain of STK4 (human) (Q13043 whole entry, looked up): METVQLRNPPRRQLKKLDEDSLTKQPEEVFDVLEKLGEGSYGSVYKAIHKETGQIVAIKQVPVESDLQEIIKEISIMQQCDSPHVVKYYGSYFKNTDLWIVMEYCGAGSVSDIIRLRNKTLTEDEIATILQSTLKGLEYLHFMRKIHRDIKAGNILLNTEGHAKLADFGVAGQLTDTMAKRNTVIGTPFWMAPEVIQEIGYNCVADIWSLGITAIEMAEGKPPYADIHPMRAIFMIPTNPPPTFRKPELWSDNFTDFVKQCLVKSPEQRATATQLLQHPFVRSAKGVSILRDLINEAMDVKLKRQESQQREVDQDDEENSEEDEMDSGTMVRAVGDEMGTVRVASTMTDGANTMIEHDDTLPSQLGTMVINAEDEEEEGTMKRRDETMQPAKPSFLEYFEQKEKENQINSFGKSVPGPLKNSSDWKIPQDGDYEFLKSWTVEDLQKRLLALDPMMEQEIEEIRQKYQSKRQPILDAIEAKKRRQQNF

MAPK12 (human) = MAPK12 (human) (UniProt P53778)
SRC (human) = SRC (human) (UniProt P12931)
FGFR3 (human) = FGFR3 (human) (UniProt P22607)
EPHA1 (human) = EPHA1 (human) (UniProt P21709)
AURKB (human) = AURKB (human) (UniProt Q96GD4)
MAPKAPK2 (human) = MAPKAPK2 (human) (UniProt P49137)
Chain of MAPKAPK2 (human) (P49137 whole entry, looked up): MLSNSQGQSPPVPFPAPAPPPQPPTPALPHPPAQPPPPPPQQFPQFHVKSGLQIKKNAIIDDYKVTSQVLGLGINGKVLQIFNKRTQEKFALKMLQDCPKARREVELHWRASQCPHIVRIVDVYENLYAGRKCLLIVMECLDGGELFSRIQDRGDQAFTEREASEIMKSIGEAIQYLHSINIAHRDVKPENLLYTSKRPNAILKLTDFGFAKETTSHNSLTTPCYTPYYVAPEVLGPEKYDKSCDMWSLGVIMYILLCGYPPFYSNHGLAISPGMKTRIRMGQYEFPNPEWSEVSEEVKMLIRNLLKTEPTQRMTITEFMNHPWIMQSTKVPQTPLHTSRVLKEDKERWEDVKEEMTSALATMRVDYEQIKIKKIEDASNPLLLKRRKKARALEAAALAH

TSSK1B (human) = TSSK1B (human) (UniProt Q9BXA7)
JAK3 JH1 JH2 (human) = JAK3 JH1 JH2 (human) (UniProt P52333)
Chain of JAK3 JH1 JH2 (human) (P52333 whole entry, looked up): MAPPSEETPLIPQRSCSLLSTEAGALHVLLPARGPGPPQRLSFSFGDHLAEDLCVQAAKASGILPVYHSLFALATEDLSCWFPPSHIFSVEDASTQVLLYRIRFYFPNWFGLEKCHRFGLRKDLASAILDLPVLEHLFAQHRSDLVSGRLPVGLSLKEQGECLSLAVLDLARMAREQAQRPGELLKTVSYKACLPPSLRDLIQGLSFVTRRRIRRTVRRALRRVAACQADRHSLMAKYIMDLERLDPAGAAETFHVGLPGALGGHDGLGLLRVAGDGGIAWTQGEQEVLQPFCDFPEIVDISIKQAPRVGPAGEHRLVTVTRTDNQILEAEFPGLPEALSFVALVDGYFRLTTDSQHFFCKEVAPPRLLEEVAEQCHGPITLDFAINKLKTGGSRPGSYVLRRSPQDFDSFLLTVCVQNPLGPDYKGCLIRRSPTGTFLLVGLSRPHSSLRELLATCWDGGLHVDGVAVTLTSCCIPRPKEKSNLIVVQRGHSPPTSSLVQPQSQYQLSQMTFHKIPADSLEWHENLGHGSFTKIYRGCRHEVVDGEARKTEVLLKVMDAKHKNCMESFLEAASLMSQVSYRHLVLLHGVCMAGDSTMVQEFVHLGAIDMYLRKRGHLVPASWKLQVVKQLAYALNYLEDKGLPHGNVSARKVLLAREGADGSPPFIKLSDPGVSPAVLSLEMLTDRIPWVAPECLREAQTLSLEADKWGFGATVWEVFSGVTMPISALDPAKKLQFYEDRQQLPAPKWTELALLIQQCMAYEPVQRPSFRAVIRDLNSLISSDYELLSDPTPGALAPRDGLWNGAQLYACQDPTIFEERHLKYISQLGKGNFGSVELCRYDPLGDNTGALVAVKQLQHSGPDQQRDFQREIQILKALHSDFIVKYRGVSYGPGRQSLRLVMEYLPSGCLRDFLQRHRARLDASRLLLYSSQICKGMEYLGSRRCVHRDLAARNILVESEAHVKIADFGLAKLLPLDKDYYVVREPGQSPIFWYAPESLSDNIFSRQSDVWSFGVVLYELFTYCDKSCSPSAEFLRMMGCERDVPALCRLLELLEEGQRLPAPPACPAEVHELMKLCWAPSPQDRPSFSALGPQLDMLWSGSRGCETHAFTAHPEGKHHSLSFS

CAMK4 (human) = CAMK4 (human) (UniProt Q16566)
TAOK2 (human) = TAOK2 (human) (UniProt Q9UL54)
WNK3 (human) = WNK3 (human) (UniProt Q9BYP7)
EEF2K (human) = EEF2K (human) (UniProt O00418)
CDK9 (human) = CDK9 (human) (UniProt P50750)
CSNK1A1 (human) = CSNK1A1 (human) (UniProt P48729)
Chain of CSNK1A1 (human) (P48729 whole entry, looked up): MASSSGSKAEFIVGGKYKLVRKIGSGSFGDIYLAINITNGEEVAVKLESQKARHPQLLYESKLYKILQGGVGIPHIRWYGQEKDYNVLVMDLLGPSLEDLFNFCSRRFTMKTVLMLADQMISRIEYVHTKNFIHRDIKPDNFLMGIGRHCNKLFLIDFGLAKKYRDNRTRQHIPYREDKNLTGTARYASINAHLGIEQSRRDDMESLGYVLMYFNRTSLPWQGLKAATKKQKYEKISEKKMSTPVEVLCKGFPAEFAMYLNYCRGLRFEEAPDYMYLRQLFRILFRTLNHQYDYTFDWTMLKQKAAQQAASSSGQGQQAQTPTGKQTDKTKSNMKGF

JAK2 JH1 JH2 (human) = JAK2 JH1 JH2 (human) (UniProt O60674)
ITK (human) = ITK (human) (UniProt Q08881)
HIPK1 (human) = HIPK1 (human) (UniProt Q86Z02)
Chain of HIPK1 (human) (Q86Z02 whole entry, looked up): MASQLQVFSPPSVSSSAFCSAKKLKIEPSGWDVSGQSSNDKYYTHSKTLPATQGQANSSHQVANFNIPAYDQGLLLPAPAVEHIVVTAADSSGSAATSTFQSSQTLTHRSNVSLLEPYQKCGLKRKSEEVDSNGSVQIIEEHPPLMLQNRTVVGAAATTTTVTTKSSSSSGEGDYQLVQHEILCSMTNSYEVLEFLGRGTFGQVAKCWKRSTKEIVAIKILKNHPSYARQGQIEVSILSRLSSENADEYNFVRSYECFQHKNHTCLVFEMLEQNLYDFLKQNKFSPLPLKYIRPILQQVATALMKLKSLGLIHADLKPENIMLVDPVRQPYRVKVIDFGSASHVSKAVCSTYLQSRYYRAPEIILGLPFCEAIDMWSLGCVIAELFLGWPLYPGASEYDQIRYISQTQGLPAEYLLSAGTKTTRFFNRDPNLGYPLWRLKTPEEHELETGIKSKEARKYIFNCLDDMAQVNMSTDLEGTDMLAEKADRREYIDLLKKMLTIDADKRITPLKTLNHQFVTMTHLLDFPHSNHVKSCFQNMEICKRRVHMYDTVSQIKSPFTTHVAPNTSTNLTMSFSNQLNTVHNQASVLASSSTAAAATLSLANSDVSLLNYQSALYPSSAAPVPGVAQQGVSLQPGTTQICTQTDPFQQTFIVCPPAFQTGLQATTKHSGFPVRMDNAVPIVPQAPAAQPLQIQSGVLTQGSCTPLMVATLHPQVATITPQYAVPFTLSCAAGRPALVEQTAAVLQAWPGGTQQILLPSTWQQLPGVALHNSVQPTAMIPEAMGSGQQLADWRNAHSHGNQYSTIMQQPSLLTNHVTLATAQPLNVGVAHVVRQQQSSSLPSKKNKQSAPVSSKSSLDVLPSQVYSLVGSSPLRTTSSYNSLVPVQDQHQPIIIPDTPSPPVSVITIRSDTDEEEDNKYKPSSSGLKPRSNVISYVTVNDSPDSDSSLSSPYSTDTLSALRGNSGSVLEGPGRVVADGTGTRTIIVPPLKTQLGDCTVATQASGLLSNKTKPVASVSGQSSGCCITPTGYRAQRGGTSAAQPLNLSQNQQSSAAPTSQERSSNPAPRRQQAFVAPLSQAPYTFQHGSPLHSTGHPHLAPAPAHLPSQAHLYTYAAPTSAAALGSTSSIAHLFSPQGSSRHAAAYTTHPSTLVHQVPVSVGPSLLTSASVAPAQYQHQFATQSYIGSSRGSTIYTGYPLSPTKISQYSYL

RPS6KA4 KD1 KD2 (human) = RPS6KA4 KD1 KD2 (human) (UniProt O75676)
KIT (human) = KIT (human) (UniProt P10721)
IGF1R (human) = IGF1R (human) (UniProt P08069)
FGFR2 (human) = FGFR2 (human) (UniProt P21802)
PBK (human) = PBK (human) (UniProt Q96KB5)
PTK2B (human) = PTK2B (human) (UniProt Q14289)
Chain of PTK2B (human) (Q14289 whole entry, looked up): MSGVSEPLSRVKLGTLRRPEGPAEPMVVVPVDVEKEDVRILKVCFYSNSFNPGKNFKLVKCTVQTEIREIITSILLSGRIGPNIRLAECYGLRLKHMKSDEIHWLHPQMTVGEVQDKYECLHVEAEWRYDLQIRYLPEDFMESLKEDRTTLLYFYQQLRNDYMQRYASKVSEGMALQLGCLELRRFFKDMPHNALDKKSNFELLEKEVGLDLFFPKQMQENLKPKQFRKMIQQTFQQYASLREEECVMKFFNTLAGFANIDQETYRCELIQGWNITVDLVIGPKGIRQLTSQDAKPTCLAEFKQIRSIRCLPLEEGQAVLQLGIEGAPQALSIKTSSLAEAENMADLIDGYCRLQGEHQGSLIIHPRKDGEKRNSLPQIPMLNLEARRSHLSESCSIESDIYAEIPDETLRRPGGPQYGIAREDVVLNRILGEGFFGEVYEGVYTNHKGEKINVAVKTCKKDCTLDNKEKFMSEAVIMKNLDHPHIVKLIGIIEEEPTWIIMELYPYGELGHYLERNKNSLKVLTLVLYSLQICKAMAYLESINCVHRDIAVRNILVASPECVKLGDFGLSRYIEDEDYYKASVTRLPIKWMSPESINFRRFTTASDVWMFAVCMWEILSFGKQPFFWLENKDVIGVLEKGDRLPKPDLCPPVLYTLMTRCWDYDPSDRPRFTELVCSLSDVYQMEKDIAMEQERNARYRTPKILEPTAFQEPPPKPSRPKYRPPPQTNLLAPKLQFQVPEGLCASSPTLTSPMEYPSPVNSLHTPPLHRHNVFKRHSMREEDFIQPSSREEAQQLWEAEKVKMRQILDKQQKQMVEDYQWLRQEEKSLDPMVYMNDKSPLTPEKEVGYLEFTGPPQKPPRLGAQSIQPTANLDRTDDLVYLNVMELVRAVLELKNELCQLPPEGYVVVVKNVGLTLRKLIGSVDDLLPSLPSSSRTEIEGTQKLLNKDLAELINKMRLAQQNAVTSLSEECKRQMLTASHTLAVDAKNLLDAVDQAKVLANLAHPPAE

SIK2 (human) = SIK2 (human) (UniProt Q9H0K1)

Chain of MAPK1 (human) (P28482 whole entry, looked up): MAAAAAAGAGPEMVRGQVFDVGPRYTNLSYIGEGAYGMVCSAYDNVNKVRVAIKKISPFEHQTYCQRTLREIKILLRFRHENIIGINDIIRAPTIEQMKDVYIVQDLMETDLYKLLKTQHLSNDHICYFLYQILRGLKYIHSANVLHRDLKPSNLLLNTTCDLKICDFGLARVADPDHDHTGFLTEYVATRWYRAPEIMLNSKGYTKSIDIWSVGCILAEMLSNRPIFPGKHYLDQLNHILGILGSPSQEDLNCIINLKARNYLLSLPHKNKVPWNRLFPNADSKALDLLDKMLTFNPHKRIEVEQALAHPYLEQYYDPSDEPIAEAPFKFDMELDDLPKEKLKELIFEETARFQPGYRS

## COc1cc2c(Oc3ccc4[nH]c(C)cc4c3F)ncnc2cc1OCCCN1CCCC1
MAPK1 (human); compound 0.02 µM
  inhibition: -6.5%
MAPK1 (human); compound 0.2 µM
  inhibition: -9%
BRSK2 (human); compound 0.02 µM
  inhibition: -2.3%
BRSK2 (human); compound 0.2 µM
  inhibition: 2.8%
NTRK1 (human); compound 0.02 µM
  inhibition: 3.4%
NTRK1 (human); compound 0.2 µM
  inhibition: 3.9%
SRPK3 (human); compound 0.02 µM
  inhibition: -3.4%
SRPK3 (human); compound 0.2 µM
  inhibition: 0.3%
SGK3 (human); compound 0.02 µM
  inhibition: 8.5%
SGK3 (human); compound 0.2 µM
  inhibition: 1.9%
CHUK (human); compound 0.02 µM
  inhibition: 5.3%
CHUK (human); compound 0.2 µM
  inhibition: 5.3%
PIM3 (human); compound 0.02 µM
  inhibition: -1.8%
PIM3 (human); compound 0.2 µM
  inhibition: -6.2%
MELK (human); compound 0.02 µM
  inhibition: 6.6%
MELK (human); compound 0.2 µM
  inhibition: 10%
WNK2 (human); compound 0.02 µM
  inhibition: 3.8%
WNK2 (human); compound 0.2 µM
  inhibition: 2.8%
STK4 (human); compound 0.02 µM
  inhibition: -4.5%
STK4 (human); compound 0.2 µM
  inhibition: 9%
MAPK12 (human); compound 0.02 µM
  inhibition: -4.8%
MAPK12 (human); compound 0.2 µM
  inhibition: -0.1%
SRC (human)
  Ki: 0.0835 µM
SRC (human); compound 0.2 µM
  inhibition: 58.1%
FGFR3 (human); compound 0.02 µM
  inhibition: 72.3%
FGFR3 (human); compound 0.2 µM
  inhibition: 96.5%
EPHA1 (human); compound 0.02 µM
  inhibition: -0.2%
EPHA1 (human); compound 0.2 µM
  inhibition: 6.5%
AURKB (human); compound 0.02 µM
  inhibition: 4.5%
AURKB (human); compound 0.2 µM
  inhibition: 8.3%
MAPKAPK2 (human); compound 0.02 µM
  inhibition: 6.1%
MAPKAPK2 (human); compound 0.2 µM
  inhibition: -1.5%
TSSK1B (human); compound 0.02 µM
  inhibition: -3.6%
TSSK1B (human); compound 0.2 µM
  inhibition: -3.6%
JAK3 JH1 JH2 (human); compound 0.02 µM
  inhibition: 5.1%
JAK3 JH1 JH2 (human); compound 0.2 µM
  inhibition: 4%
CAMK4 (human); compound 0.02 µM
  inhibition: -4%
CAMK4 (human); compound 0.2 µM
  inhibition: -0.6%
TAOK2 (human); compound 0.02 µM
  inhibition: 3.1%
TAOK2 (human); compound 0.2 µM
  inhibition: 3.3%
WNK3 (human); compound 0.02 µM
  inhibition: 0.8%
WNK3 (human); compound 0.2 µM
  inhibition: -1.1%
EEF2K (human); compound 0.02 µM
  inhibition: -5.2%
EEF2K (human); compound 0.2 µM
  inhibition: 3.1%
CDK9 (human); compound 0.02 µM
  inhibition: -3.2%
CDK9 (human); compound 0.2 µM
  inhibition: -3.3%
CSNK1A1 (human); compound 0.02 µM
  inhibition: -5.9%
CSNK1A1 (human); compound 0.2 µM
  inhibition: -7.9%
JAK2 JH1 JH2 (human); compound 0.02 µM
  inhibition: 4.5%
JAK2 JH1 JH2 (human); compound 0.2 µM
  inhibition: 4.5%
ITK (human); compound 0.02 µM
  inhibition: 6.7%
ITK (human); compound 0.2 µM
  inhibition: 5.5%
HIPK1 (human); compound 0.02 µM
  inhibition: -5.7%
HIPK1 (human); compound 0.2 µM
  inhibition: -1%
RPS6KA4 KD1 KD2 (human); compound 0.02 µM
  inhibition: -4.9%
RPS6KA4 KD1 KD2 (human); compound 0.2 µM
  inhibition: 2.6%
KIT (human); compound 0.02 µM
  inhibition: 64.1%
KIT (human); compound 0.2 µM
  inhibition: 71.4%
IGF1R (human); compound 0.02 µM
  inhibition: 1.4%
IGF1R (human); compound 0.2 µM
  inhibition: -1.5%
FGFR2 (human); compound 0.02 µM
  inhibition: 71.8%
FGFR2 (human); compound 0.2 µM
  inhibition: 98.3%
PBK (human); compound 0.02 µM
  inhibition: 0.1%
PBK (human); compound 0.2 µM
  inhibition: -6.1%
PTK2B (human); compound 0.02 µM
  inhibition: -1.9%
PTK2B (human); compound 0.2 µM
  inhibition: -5.4%
SIK2 (human); compound 0.02 µM
  inhibition: 3.7%
SIK2 (human); compound 0.2 µM
  inhibition: 16.5%

## CNC(=O)c1ccccc1Sc1ccc2c(/C=C/c3ccccn3)n[nH]c2c1
MAPK1 (human); compound 0.001 µM
  inhibition: -5.9%
MAPK1 (human); compound 0.02 µM
  inhibition: -7.2%
BRSK2 (human); compound 0.001 µM
  inhibition: -3.5%
BRSK2 (human); compound 0.02 µM
  inhibition: 12.9%
NTRK1 (human); compound 0.001 µM
  inhibition: 2.9%
NTRK1 (human); compound 0.02 µM
  inhibition: 21.6%
SRPK3 (human); compound 0.001 µM
  inhibition: -3.3%
SRPK3 (human); compound 0.02 µM
  inhibition: -0.9%
SGK3 (human); compound 0.001 µM
  inhibition: 13.9%
SGK3 (human); compound 0.02 µM
  inhibition: 0.8%
CHUK (human); compound 0.001 µM
  inhibition: -2.6%
CHUK (human); compound 0.02 µM
  inhibition: 2.6%
PIM3 (human); compound 0.001 µM
  inhibition: -7.7%
PIM3 (human); compound 0.02 µM
  inhibition: -5.9%
MELK (human); compound 0.001 µM
  inhibition: 1.9%
MELK (human); compound 0.02 µM
  inhibition: 0.9%
WNK2 (human); compound 0.001 µM
  inhibition: 1.8%
WNK2 (human); compound 0.02 µM
  inhibition: -0.3%
STK4 (human); compound 0.001 µM
  inhibition: -5.9%
STK4 (human); compound 0.02 µM
  inhibition: 2%
MAPK12 (human); compound 0.001 µM
  inhibition: -3.7%
MAPK12 (human); compound 0.02 µM
  inhibition: -4.6%
SRC (human); compound 0.001 µM
  inhibition: 1.3%
SRC (human); compound 0.02 µM
  inhibition: -0.2%
FGFR3 (human); compound 0.001 µM
  inhibition: 8.1%
FGFR3 (human); compound 0.02 µM
  inhibition: 47.4%
EPHA1 (human); compound 0.001 µM
  inhibition: -5.6%
EPHA1 (human); compound 0.02 µM
  inhibition: -4.2%
AURKB (human); compound 0.001 µM
  inhibition: 5.9%
AURKB (human); compound 0.02 µM
  inhibition: 48.4%
MAPKAPK2 (human); compound 0.001 µM
  inhibition: 2.3%
MAPKAPK2 (human); compound 0.02 µM
  inhibition: -0.8%
TSSK1B (human); compound 0.001 µM
  inhibition: -4.2%
TSSK1B (human); compound 0.02 µM
  inhibition: -3.6%
JAK3 JH1 JH2 (human); compound 0.001 µM
  inhibition: 4.6%
CAMK4 (human); compound 0.001 µM
  inhibition: -4%
CAMK4 (human); compound 0.02 µM
  inhibition: -4.7%
TAOK2 (human); compound 0.001 µM
  inhibition: -4.1%
TAOK2 (human); compound 0.02 µM
  inhibition: -6.1%
WNK3 (human); compound 0.001 µM
  inhibition: 0.8%
WNK3 (human); compound 0.02 µM
  inhibition: -1.4%
EEF2K (human); compound 0.001 µM
  inhibition: -4.8%
EEF2K (human); compound 0.02 µM
  inhibition: 2.3%
CDK9 (human); compound 0.001 µM
  inhibition: -4.7%
CDK9 (human); compound 0.02 µM
  inhibition: -6.4%
CSNK1A1 (human); compound 0.001 µM
  inhibition: -8.2%
CSNK1A1 (human); compound 0.02 µM
  inhibition: -7.8%
JAK2 JH1 JH2 (human); compound 0.001 µM
  inhibition: 2.5%
JAK2 JH1 JH2 (human); compound 0.02 µM
  inhibition: 4.7%
ITK (human); compound 0.001 µM
  inhibition: 2.8%
ITK (human); compound 0.02 µM
  inhibition: 1.9%
HIPK1 (human); compound 0.001 µM
  inhibition: -4.9%
HIPK1 (human); compound 0.02 µM
  inhibition: -0.2%
RPS6KA4 KD1 KD2 (human); compound 0.001 µM
  inhibition: -7.2%
RPS6KA4 KD1 KD2 (human); compound 0.02 µM
  inhibition: -1.1%
KIT (human); compound 0.001 µM
  inhibition: 37.8%
KIT (human); compound 0.02 µM
  inhibition: 70.5%
IGF1R (human); compound 0.001 µM
  inhibition: 0.7%
IGF1R (human); compound 0.02 µM
  inhibition: -1.8%
FGFR2 (human); compound 0.001 µM
  inhibition: 10.6%
FGFR2 (human); compound 0.02 µM
  inhibition: 54.1%
PBK (human); compound 0.001 µM
  inhibition: -7.6%
PBK (human); compound 0.02 µM
  inhibition: -7.4%
PTK2B (human); compound 0.001 µM
  inhibition: -4.6%
PTK2B (human); compound 0.02 µM
  inhibition: -1.4%
SIK2 (human); compound 0.001 µM
  inhibition: 0.7%
SIK2 (human); compound 0.02 µM
  inhibition: -1.6%

Source: the kinase profiling compilation of Christmann-Franck et al. (2016)
